What was measured:
[1] = tested on: human pulmonary arterial smooth muscle cells (HPASMCs); test: PDGF-BB-induced HPASMC proliferation assay; format: cell-based
PDGFRβ = PDGFRβ (Rattus norvegicus, UniProt Q05030); test: Imatinib in vivo pharmacodynamic profile; details: imatinib dose selected for the in vivo study, oral gavage
[2] = tested on: rat SU5416/Hypoxia (SU5416/H) model of PAH; test: SU5416/H model; format: in vivo; details: for circulating IL-10 / circulating plasma TNF-α / lung mRNA and protein levels of MCP-1: day 49, vs vehicle; for lung BMPR2: end of treatment, vs vehicle
[3] = tested on: rat monocrotaline (MCT) model; details: cited from earlier work
[4] = tested on: MCP-1 secretion in CSF1R+ human macrophages; test: MCP-1/CCL2 secretion in primary human macrophages; format: cell-based; details: 24-hour incubation
c-KIT [5] = molecular target: c-KIT (Rattus norvegicus, UniProt F7EWK5); test: Lung c-KIT phosphorylation after PDGF-BB and SCF challenge in healthy rats; format: in vivo; details: inhaled; co-administered intratracheal PDGF-BB and SCF
Chain of c-KIT (Rattus norvegicus, UniProt F7EWK5) (F7EWK5 26-978): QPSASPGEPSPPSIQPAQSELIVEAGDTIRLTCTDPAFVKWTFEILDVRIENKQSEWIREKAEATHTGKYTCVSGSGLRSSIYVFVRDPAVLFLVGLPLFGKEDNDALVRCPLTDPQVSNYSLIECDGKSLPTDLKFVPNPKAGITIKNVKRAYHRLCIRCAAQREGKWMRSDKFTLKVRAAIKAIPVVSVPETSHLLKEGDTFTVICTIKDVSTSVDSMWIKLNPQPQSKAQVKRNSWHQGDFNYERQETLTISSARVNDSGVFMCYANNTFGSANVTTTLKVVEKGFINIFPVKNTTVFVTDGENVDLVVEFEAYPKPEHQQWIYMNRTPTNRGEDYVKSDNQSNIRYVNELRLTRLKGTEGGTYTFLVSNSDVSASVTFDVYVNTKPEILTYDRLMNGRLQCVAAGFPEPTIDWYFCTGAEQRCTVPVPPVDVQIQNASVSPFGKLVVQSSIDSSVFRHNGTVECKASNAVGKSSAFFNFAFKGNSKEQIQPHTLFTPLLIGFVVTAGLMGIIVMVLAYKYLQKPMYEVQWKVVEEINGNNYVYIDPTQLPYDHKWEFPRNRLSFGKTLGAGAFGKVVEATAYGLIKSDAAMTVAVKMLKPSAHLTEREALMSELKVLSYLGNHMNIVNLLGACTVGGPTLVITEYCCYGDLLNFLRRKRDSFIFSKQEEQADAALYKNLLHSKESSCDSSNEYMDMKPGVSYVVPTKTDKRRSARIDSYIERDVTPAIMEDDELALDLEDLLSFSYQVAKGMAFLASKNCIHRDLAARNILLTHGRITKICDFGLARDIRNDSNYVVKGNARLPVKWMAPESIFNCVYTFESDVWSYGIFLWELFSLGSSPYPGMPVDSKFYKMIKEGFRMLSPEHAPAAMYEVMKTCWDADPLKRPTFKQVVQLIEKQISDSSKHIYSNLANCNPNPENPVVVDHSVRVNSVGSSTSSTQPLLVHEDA

BMPR2 = test: Lung BMPR2 protein expression in healthy rats; format: in vivo, rat; details: inhaled, dose-dependent, over time (8, 16, 24 h post-dosing)
[6] = tested on: rat SU5416/Hypoxia (SU5416/H) model of PAH; test: SU5416/H model; format: in vivo; details: for RVSP end of study: 2 weeks
[7] = tested on: rat monocrotaline pneumonectomy (MCTPN) model of PAH; test: MCTPN model; format: in vivo
c-KIT [8] = molecular target: c-KIT (Homo sapiens, UniProt P10721); test: cell-based
Chain of c-KIT (Homo sapiens, UniProt P10721) (P10721 26-976): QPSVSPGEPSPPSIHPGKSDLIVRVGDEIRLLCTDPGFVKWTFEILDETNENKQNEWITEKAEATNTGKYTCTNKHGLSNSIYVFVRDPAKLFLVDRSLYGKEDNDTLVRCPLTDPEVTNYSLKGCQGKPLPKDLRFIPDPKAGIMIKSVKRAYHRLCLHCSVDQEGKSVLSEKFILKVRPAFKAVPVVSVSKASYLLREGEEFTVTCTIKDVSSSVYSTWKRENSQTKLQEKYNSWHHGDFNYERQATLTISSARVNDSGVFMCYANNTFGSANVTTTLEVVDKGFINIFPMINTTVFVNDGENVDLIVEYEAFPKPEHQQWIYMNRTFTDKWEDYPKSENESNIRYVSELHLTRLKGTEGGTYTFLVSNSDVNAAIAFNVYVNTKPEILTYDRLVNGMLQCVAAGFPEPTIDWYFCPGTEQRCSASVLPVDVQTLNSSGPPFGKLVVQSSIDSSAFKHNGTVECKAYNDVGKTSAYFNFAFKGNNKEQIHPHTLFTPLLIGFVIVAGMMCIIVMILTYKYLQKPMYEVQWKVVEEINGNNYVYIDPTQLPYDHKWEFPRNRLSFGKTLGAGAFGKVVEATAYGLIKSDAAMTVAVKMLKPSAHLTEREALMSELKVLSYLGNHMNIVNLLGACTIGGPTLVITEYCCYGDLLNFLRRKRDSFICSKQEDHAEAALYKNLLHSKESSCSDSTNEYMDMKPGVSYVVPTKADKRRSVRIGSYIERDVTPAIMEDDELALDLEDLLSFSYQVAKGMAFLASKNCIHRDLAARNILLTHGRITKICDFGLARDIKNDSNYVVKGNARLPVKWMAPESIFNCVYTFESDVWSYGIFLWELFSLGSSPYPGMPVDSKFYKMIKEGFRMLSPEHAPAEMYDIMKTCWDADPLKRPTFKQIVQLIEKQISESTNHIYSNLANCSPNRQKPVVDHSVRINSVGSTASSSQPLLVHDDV

[9] = Inhaled seralutinib pharmacokinetics in healthy rats; details: male, Sprague Dawley, rat, lung homogenate and plasma
CSF1R = CSF1R (Homo sapiens, UniProt P07333); test: M-CSF-induced pCSF1R in primary human macrophages
Chain of CSF1R (P07333 20-972): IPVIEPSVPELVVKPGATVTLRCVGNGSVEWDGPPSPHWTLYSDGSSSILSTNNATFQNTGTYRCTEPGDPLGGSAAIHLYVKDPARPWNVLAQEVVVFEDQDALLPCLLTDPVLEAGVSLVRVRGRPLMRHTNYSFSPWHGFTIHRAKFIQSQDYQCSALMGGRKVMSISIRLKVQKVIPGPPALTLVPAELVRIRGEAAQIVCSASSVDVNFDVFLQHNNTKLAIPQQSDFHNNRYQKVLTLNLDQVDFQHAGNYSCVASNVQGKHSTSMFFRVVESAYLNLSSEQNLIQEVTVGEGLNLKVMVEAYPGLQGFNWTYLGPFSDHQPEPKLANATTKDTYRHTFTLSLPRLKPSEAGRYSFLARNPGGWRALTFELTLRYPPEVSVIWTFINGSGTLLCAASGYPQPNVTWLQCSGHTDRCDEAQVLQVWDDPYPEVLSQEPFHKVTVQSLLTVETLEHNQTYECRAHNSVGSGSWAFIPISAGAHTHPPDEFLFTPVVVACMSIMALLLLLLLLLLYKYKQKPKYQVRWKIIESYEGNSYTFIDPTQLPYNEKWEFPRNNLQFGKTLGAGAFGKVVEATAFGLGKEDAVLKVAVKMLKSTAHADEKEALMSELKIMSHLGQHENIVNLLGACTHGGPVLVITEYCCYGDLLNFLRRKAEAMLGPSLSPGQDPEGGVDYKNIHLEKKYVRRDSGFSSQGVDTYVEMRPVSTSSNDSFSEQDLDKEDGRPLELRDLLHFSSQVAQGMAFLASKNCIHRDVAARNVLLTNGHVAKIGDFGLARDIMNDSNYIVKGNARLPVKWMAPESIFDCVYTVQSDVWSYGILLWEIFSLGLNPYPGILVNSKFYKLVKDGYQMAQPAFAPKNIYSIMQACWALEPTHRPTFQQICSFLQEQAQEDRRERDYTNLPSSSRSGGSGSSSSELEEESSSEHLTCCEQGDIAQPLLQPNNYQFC

[10] = 4.6 mg·kg−1 twice daily, vs vehicle
[11] = 2.5 mg·kg−1 twice daily inhaled, 11 days
[12] = 2.5 mg·kg−1 twice daily, vs vehicle

Chain of PDGFRβ (Q05030 32-1097): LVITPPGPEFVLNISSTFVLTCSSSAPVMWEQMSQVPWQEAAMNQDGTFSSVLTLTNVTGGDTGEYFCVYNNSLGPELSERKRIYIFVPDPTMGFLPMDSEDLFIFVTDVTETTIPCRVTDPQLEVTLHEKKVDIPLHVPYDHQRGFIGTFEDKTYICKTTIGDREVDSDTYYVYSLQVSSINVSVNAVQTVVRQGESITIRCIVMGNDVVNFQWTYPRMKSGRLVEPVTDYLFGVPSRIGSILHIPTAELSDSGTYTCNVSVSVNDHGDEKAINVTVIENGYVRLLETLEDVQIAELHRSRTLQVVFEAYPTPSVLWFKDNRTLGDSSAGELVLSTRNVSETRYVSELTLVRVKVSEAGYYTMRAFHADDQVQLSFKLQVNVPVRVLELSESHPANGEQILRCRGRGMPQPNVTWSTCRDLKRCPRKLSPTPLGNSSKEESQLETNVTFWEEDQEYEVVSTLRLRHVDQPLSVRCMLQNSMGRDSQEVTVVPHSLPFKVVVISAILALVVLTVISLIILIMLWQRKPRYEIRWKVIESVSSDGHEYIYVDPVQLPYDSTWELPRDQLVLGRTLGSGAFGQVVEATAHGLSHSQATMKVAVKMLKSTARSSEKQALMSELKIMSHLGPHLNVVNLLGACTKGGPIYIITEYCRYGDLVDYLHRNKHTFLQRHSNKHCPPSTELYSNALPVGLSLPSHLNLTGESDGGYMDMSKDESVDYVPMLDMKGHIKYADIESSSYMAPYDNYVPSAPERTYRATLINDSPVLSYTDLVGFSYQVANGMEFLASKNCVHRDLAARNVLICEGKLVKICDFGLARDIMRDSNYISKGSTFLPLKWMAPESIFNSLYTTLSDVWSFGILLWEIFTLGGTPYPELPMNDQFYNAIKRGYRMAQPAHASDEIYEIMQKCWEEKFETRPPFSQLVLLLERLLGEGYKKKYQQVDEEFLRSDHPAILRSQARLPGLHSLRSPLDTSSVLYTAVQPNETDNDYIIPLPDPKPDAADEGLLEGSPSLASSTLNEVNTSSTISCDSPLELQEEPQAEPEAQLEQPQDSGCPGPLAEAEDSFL

Cc1ccc(NC(=O)c2ccc(CN3CCN(C)CC3)cc2)cc1Nc1nccc(-c2cccnc2)n1 [Imatinib, reference compound]
potency less than seralutinib ([1]; human PASMC and HLF proliferation assays): 13–20 fold
PDGFRβ phosphorylation in healthy rats (PDGFRβ): potent inhibition
circulating IL-10 [2]: did not significantly alter
circulating plasma TNF-α [2]: did not significantly alter
lung mRNA and protein levels of MCP-1 [2]: did not modulate
lung BMPR2 [2]: no significant effect
effect on NT-proBNP ([2]; imatinib 15.0 mg·kg−1 once daily oral, day 49): no significant effect
pulmonary hypertension in rat MCT model [3]: reversed pulmonary hypertension

COc1ccc(-c2cncc(N[C@@H](C)c3cccc(NC(=O)c4cncc(C)c4)c3)n2)cc1OC [Seralutinib, N-[3-[(1S)-1-[[6-(3,4-dimethoxyphenyl)pyrazin-2-yl]amino]ethyl]phenyl]-5-methylpyridine-3-carboxamide]
greater potency at inhibiting proliferation compared to imatinib ([1]; human PASMCs and HLFs): 13- to 20 fold
MCP-1 secretion [4]: reduced MCP-1 secretion in a dose-dependent manner
inhibition of c-KIT Y719 phosphorylation in lung (c-KIT [5]): 43%
increase in lung BMPR2 protein expression (BMPR2): 2-to-2.5 fold
RVSP end of study ([6]; 2.5 mg·kg−1 twice daily inhaled): 49.6±3.1 mmHg
reduction of PASP relative to vehicle ([6]; 2.5 mg·kg−1 twice daily inhaled, end of 2-week treatment, telemetry): 43%
RVSP end of study ([6]; 4.6 mg·kg−1 twice daily inhaled): 34.7±2.2 mmHg
lung phospho-PDGFRβ IHC [6, 10]: reduced intensity
number of grade 2 lesions (small pulmonary artery occlusion) [6, 10]: significant decrease
small pulmonary artery lumen-to-media area [6, 10]: increased
reduction in RVSP compared to vehicle [7, 11]: 50%
reduction of right ventricular hypertrophy compared to vehicle [7, 11]: 49%
PASP lower compared to vehicle ([7]; 2.5 mg·kg−1 twice daily inhaled, day 9): 34%
PASP lower compared to vehicle ([7]; 2.5 mg·kg−1 twice daily inhaled, day 10): 37%
PASP lower compared to vehicle ([7]; 2.5 mg·kg−1 twice daily inhaled, day 11): 41%
lumen-to-media area ([7]; 2.5 mg·kg−1 twice daily, vs controls): increased
grade 1 and 2 lesions [7, 12]: fewer
perivascular fibrosis [7, 12]: qualitative decrease
airway resistance ([7]; vs vehicle): similar
minute ventilation ([7]; vs vehicle): similar
respiratory rate ([7]; vs vehicle): decreased
tidal volume ([7]; vs vehicle): significantly improved
decrease of NT-proBNP versus vehicle control ([2]; 12.8 mg·kg−1 twice daily inhaled, day 49): 55%
small pulmonary artery muscularisation ([2]; compared to both the vehicle and imatinib-treated groups): decrease
SMAD1/5 phosphorylation in lung ([2]; day 49): increase
circulating PDGF-BB ([2]; day 49): trend towards decreased
circulating IL-10 [2]: increased
circulating plasma TNF-α [2]: decreased
lung mRNA and protein levels of MCP-1 [2]: decreased
effect on stroke volume index and cardiac index compared to imatinib ([2]; echocardiography, day 49): significantly greater effect
lung BMPR2 [2]: significantly increased
IC50 (c-KIT [8]): 7.8 nM
Kp [9]: 30
IC50 (CSF1R): 14.4 nM
more potent than imatinib, pCSF1R (CSF1R; M-CSF-induced phosphorylation of CSF1R in human primary differentiated macrophages): 34 fold

From publication PMC9724289 (The European Respiratory Journal, 2022)
